Measurements taken from ChEMBL document CHEMBL5291721, “A preclinical secondary pharmacology resource illuminates target-adverse drug reaction associations of marketed drugs” (Nat Commun, 2023).

Legend:
[1] = biological target: Histamine H1 receptor (Homo sapiens, UniProt P35367); format: functional, cell-based
[2] = biological target: Substance-P receptor (Homo sapiens, UniProt P25103)
[3] = biological target: T1, Estrogen receptor (Homo sapiens, UniProt P03372); format: functional
T1 sequence (P03372 whole entry): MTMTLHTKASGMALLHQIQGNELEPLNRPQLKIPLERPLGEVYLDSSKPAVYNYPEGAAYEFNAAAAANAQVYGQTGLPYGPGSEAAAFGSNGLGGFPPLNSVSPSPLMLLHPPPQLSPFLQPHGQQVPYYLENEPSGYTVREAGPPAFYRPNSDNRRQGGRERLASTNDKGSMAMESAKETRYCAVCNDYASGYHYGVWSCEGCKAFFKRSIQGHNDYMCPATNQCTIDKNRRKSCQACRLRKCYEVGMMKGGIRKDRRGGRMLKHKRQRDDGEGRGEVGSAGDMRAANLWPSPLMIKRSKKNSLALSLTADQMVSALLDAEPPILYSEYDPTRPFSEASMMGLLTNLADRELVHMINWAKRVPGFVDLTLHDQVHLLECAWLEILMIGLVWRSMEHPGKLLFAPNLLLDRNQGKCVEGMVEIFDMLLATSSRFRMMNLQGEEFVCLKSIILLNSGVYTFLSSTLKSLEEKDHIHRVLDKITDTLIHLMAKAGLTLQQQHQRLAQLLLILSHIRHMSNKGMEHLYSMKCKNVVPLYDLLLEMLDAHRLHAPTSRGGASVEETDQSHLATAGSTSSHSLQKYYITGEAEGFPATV

[4] = biological target: T2, Peroxisome proliferator-activated receptor gamma (Homo sapiens, UniProt P37231); format: functional
T2 sequence (P37231 whole entry): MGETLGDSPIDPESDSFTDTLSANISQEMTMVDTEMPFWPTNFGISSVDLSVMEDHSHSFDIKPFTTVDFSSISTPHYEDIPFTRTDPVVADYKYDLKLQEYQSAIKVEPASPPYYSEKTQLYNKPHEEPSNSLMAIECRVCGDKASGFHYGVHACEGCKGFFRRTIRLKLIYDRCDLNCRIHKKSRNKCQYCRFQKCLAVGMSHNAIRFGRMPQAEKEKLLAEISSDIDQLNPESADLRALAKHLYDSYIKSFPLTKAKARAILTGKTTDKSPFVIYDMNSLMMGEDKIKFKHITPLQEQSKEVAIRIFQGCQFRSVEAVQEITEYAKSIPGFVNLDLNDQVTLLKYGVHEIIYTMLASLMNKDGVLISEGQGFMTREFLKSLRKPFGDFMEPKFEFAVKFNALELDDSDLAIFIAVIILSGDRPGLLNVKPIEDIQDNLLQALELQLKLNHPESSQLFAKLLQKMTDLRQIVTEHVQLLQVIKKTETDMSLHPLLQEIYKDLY

[5] = biological target: T3, Muscarinic acetylcholine receptor M4 (Homo sapiens, UniProt P08173)
T3 sequence (P08173 whole entry): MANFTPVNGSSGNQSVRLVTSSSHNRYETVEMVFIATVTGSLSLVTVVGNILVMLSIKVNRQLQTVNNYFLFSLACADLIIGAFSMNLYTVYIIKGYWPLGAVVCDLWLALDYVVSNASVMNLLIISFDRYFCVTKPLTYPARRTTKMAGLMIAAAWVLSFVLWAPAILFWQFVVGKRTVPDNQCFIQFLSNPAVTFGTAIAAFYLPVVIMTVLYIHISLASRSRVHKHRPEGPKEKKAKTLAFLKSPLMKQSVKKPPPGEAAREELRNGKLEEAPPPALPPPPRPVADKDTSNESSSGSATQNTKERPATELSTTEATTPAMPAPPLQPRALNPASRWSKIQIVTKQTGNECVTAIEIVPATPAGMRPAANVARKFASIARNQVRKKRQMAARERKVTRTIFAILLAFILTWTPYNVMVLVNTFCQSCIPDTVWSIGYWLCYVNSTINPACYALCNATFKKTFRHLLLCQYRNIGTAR

[6] = biological target: T4, Muscarinic acetylcholine receptor M5 (Homo sapiens, UniProt P08912)
T4 sequence (P08912 whole entry): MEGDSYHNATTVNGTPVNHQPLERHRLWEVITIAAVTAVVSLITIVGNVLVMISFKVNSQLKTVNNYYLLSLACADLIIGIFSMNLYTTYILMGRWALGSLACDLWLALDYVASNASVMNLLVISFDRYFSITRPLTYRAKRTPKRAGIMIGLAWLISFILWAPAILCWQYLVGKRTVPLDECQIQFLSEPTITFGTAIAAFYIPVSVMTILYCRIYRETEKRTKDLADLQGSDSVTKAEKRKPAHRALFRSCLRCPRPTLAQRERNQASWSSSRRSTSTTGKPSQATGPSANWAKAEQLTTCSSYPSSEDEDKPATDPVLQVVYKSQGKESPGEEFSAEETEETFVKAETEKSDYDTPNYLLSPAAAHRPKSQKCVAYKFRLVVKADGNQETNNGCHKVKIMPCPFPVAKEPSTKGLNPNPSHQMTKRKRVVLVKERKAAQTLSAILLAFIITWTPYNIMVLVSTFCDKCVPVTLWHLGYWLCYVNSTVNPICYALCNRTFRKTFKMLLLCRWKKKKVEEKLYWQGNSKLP

[7] = biological target: D(1B) dopamine receptor (Homo sapiens, UniProt P21918)
Sequence of D(1B) dopamine receptor (P21918 whole entry): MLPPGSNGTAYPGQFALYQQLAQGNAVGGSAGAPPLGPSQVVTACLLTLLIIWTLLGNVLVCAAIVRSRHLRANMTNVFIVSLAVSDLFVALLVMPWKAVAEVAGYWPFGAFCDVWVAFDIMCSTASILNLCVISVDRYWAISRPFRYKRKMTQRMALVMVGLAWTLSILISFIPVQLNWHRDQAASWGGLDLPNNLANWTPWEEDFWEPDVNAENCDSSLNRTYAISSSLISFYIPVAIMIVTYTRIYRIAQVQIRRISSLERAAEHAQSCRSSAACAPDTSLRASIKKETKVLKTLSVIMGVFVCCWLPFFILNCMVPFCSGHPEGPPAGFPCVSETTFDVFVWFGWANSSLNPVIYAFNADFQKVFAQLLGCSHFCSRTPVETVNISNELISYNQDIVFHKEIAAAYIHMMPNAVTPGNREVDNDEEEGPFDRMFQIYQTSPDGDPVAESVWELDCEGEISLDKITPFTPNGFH

[8] = biological target: 5-hydroxytryptamine receptor 7 (Homo sapiens, UniProt P34969)
Sequence of 5-hydroxytryptamine receptor 7 (P34969 whole entry): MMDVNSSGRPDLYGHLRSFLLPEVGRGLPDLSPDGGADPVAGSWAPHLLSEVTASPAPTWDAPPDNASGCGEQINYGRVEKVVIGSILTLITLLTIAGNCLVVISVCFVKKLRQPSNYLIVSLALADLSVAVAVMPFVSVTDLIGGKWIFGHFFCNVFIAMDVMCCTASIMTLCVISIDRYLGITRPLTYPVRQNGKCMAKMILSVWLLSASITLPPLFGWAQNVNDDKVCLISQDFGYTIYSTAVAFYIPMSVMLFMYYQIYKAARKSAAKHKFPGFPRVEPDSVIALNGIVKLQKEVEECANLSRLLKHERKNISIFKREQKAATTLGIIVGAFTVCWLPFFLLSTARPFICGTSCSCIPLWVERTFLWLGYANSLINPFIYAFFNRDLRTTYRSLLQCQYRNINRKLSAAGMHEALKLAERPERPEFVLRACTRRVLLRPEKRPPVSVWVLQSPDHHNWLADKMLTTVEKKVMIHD
Also: assay procedure not described here.

Sequence of Histamine H1 receptor (P35367 whole entry): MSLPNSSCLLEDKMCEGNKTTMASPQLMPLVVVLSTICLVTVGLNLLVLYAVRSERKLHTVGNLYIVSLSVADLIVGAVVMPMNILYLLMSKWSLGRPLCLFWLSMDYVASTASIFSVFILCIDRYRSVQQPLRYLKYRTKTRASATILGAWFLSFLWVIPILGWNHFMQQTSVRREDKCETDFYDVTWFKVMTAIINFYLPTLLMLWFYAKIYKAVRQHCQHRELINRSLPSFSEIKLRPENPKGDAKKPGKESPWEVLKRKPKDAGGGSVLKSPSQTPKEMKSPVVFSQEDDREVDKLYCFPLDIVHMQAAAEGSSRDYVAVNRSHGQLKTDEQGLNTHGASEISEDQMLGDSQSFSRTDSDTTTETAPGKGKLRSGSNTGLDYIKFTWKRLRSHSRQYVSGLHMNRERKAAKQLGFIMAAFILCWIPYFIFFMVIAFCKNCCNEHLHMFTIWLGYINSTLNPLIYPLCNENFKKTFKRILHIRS
Sequence of Substance-P receptor (P25103 whole entry): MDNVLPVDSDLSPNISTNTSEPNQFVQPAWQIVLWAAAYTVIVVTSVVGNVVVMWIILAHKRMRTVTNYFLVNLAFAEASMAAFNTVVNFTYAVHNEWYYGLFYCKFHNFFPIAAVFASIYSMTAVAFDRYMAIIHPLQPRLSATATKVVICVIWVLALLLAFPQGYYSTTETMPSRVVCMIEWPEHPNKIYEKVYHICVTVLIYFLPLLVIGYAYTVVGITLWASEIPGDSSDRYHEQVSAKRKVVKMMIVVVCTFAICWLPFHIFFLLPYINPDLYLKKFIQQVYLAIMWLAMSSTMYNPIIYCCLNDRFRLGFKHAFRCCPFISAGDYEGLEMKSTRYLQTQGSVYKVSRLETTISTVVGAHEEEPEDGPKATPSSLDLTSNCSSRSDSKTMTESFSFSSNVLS

## NS(=O)(=O)c1ccc(N2CCCCS2(=O)=O)cc1
[1]
  AC50: > 30 µM

## O=C(O[C@H]1C[N+]2(CCCOc3ccccc3)CCC1CC2)C(O)(c1cccs1)c1cccs1 [ACLIDINIUM BROMIDE]
[2]
  AC50: 0.497 µM

## Cc1nnc2n1-c1ccc(Cl)cc1C(c1ccccc1)=NC2 [ALPRAZOLAM]
[2]
  AC50: > 10 µM

## COc1ccc(-n2nc(C(N)=O)c3c2C(=O)N(c2ccc(N4CCCCC4=O)cc2)CC3)cc1 [APIXABAN]
[3]
  AC50: > 30 µM
[4]
  AC50: > 30 µM

## CCN(CC)CCCN(c1ccccc1)C1Cc2ccccc2C1 [APRINDINE]
[1]
  AC50: 8 µM
[4]
  AC50: > 30 µM

## CC(NC(C)(C)C)C(=O)c1cccc(Cl)c1 (stereo unspecified) [BUPROPION]
[5]
  AC50: > 10 µM
[6]
  AC50: > 10 µM
[7]
  AC50: > 10 µM
[8]
  AC50: > 10 µM
[2]
  AC50: > 10 µM

## CC(=O)OCC1=C(C(=O)O)N2C(=O)[C@@H](NC(=O)Cc3cccs3)[C@H]2SC1 [CEPHALOTHIN]
[4]
  AC50: > 30 µM

## CC1=C(C(=O)O)N2C(=O)[C@@H](NC(=O)[C@H](N)C3=CCC=CC3)[C@H]2SC1 [CEPHRADINE]
[4]
  AC50: > 30 µM

## COc1ccc(C(Cl)=C(c2ccc(OC)cc2)c2ccc(OC)cc2)cc1 [CHLOROTRIANISENE]
[1]
  AC50: > 30 µM

## Oc1cc(O)c2c(c1)O[C@H](c1ccc(O)c(O)c1)[C@@H](O)C2 [CIANIDANOL]
[1]
  AC50: > 30 µM

## O=C1CN=C(c2ccccc2Cl)c2cc([N+](=O)[O-])ccc2N1 [CLONAZEPAM]
[2]
  AC50: > 10 µM

## CCCCCCOC(=O)NC(=N)c1ccc(NCc2nc3cc(C(=O)N(CCC(=O)OCC)c4ccccn4)ccc3n2C)cc1 [DABIGATRAN ETEXILATE]
[3]
  AC50: > 30 µM
[4]
  AC50: > 30 µM

## Cc1ccc(-c2ncc(Cl)cc2-c2ccc(S(C)(=O)=O)cc2)cn1 [ETORICOXIB]
[5]
  AC50: > 10 µM
[6]
  AC50: > 10 µM
[7]
  AC50: > 10 µM
[1]
  AC50: > 30 µM
[8]
  AC50: > 10 µM
[2]
  AC50: > 10 µM

## CCOC(=O)C1=C(C)NC(C)=C(C(=O)OC)C1c1cccc(Cl)c1Cl (stereo unspecified) [FELODIPINE]
[2]
  AC50: > 10 µM

## CN1C(=O)CN=C(c2ccccc2F)c2cc([N+](=O)[O-])ccc21 [FLUNITRAZEPAM]
[2]
  AC50: > 10 µM

## CN1C2CCCC1CC(NC(=O)c1nn(C)c3ccccc13)C2 (stereo unspecified) [GRANISETRON]
[5]
  AC50: > 10 µM
[6]
  AC50: > 10 µM
[7]
  AC50: > 10 µM
[8]
  AC50: > 10 µM
[2]
  AC50: > 10 µM

## COc1ccc2c3c1O[C@H]1C(=O)CC[C@H]4[C@@H](C2)N(C)CC[C@]314 [HYDROCODONE]
[2]
  AC50: > 10 µM

## CCC(=O)O[C@H](CC(=O)O)C[N+](C)(C)C [LEVOCARNITINE PROPIONATE]
[1]
  AC50: > 30 µM
[4]
  AC50: > 30 µM

## CCN(CC)CC(=O)Nc1c(C)cccc1C [LIDOCAINE]
[2]
  AC50: > 10 µM

## O=C(O)c1nn(Cc2ccc(Cl)cc2Cl)c2ccccc12 [LONIDAMINE]
[1]
  AC50: > 30 µM
[4]
  AC50: > 30 µM

## COC(=O)c1ccc2c(c1)NC(=O)/C2=C(\Nc1ccc(N(C)C(=O)CN2CCN(C)CC2)cc1)c1ccccc1 [NINTEDANIB]
[3]
  AC50: > 10 µM
[4]
  AC50: 4.8 µM

## CC1NCCOC1c1ccccc1 (stereo unspecified) [PHENMETRAZINE]
[1]
  AC50: > 30 µM

## CS(=O)(=O)NC(=O)CCC/C=C\C[C@H]1C(=O)C[C@@H](O)[C@@H]1/C=C/[C@@H](O)COc1ccccc1 [SULPROSTONE]
[1]
  AC50: > 30 µM
[4]
  AC50: > 30 µM

## CCCCC[C@H](O)CC[C@@H]1[C@H]2Cc3cccc(OCC(=O)O)c3C[C@H]2C[C@H]1O [TREPROSTINIL]
[4]
  AC50: > 30 µM

## CCCCCCCC(=O)CC[C@@H]1[C@@H](C/C=C\CCCC(=O)O)[C@@H](O)C[C@H]1O [UNOPROSTONE]
[1]
  AC50: > 30 µM
[4]
  AC50: > 30 µM
